Patent US6831080B2, “Cinnamide derivatives as KCNQ potassium channel modulators” (Bristol-Myers Squibb Company, priority 2001, dated 2004)

Experiments:
[1] = test system: stretched attend postures, BalbC/HSD mice; assay: Canopy test for anxiety: stretched attend postures (SAPs); type: in vivo, mouse
Text: The purpose of the Canopy test is to investigate the potential of compounds of Formula I as effective treatments for anxiety by examining an integral component of the risk assessment repertoire of defensive behaviors, the stretched attend posture (SAPs). […] This behavior is investigatory, and is considered an important behavioral indicator of anxiety in mice (Grewal et al., 1997). In brief, mice are placed on an elevated circular platform with a covered space in the middle, and an open space surrounding the covered zone. The number of SAPs the animals makes when exploring this environment are measured.
Subjects: Male BalbC/HSD mice (Harlan Sprague Dawley) weighing approximately 20-25 g at the beginning of the experiment, were used. Animals were group housed 4-5 per cage, in standard shoebox cages and maintained on a 12:12 h light-dark cycle (lights on at 0600). All animals were allowed food and water ad libitum throughout the procedure.
Apparatus: The test apparatus is comprised of a black plexiglas circular platform (70 cm diameter) elevated 60 cm above the floor. A clear red plexiglas (translucent) ‘canopy’ (38 cm diameter) is supported 4 cm directly above the platform by a central pillar, effectively dividing the platform into an inner, covered zone (beneath the canopy) and an outer, exposed zone. The apparatus is illuminated by normal room lighting.
Procedure: On test days mice are transported in their home cage to the testing room which is free of noise/distraction and the mice are injected with the compound of choice, prior to testing. For the KCNQ compounds, when administered IV, pretreatment time is 15 minutes. For oral administration, pretreatment time is 1 hour. Following the pretreatment, the animal is placed in the covered zone of the platform, always oriented in the same direction, facing the pillar. For 5 minutes the animals are allowed to freely explore the apparatus. The dependent variable is the number of Stretched Attend Postures, which are scored by an observer blind to treatment condition. Data were analyzed by an overall analysis of variance followed by Dunnett's post hoc tests. An effect was considered significant if p<0.05.
All test compounds are administered in a volume of 10 ml/kg. Vehicle and buspirone (as the positive control) treated mice were run with each experiment, and buspirone was dissolved in the same vehicle as used per each compound. Compounds of Formula I were administered IV, in a vehicle containing 10% PEG400/5% Tween/85% water, warmed on a hot plate.

[2] = target: cloned mouse KCNQ2 (mKCNQ2) (Mus musculus, UniProt Q9Z351); assay: KCNQ oocyte two-electrode voltage clamp, whole-cell outward current; type: cell-based; conditions: single holding potential (−40 μM [sic]), Xenopus oocytes
Protocol: The ability of compounds described in the present invention to open KCNQ channels and increase whole-cell outward (K^+) KCNQ-mediated currents was assessed under voltage-clamp conditions by determining their ability to increase cloned mouse KCNQ2 (mKCNQ2)-mediated, heteromultimeric KCNQ2/3 (mKCNQ2/hKCNQ3)-mediated, and human KCNQ5 (hKCNQ5)-mediated outward currents heterologously expressed in Xenopus oocytes. Oocytes were prepared and injected using standard techniques; each oocyte was injected with approximately 50 nl of mKCNQ2, or hKCNQ5 cRNA. In the case of mKCNQ2/h3 heteromultimeric channel expression, equal amounts (25-50 nL) of each cRNA were co-injected. […] Following injection, oocytes were maintained at 17° in ND96 medium consisting of (in mM): NaCl, 90; KCl, 1.0; CaCl2, 1.0; MgCl2, 1.0; HEPES, 5.0; pH 7.5. Horse serum (5%) and penicillin/streptomycin (5%) were added to the incubation medium. Recording commenced 2-6 days following mRNA injection. Prior to the start of an experiment oocytes were placed in a recording chamber and incubated in Modified Barth's Solution (MBS) consisting of (in mM): NaCl, 88; NaHCO3, 2.4; KCl, 1.0; HEPES, 10; MgSO4, 0.82; Ca(NO3)2, 0.33; CaCl2, 0.41; pH 7.5.
Oocytes were impaled with electrodes (1-2 MΩ) and standard 2-electrode voltage clamp techniques were employed to record whole-cell membrane currents. Recordings were accomplished using standard two-electrode voltage clamp techniques [Stuhmer, W., et al., Methods in Enzymology, Vol. 207: 319-339 (1992)]. Voltage-clamp protocols typically consisted of a series of voltage steps 1-5 sec duration, in +10 mV steps from a holding potential of −90 mV to a maximal potential of +40 mV; records were digitized at 5 kHz and stored on a computer using pClamp data acquisition and analysis software (Axon Instruments). Compounds were evaluated at a single concentration and at a single holding potential (−40 μM); the effect of the selected compounds of Formula I on KCNQ2 current was expressed as the percent of control current and is listed in Table I.

[3] = test system: nerve injury-induced tactile allodynia (L5/L6 ligation), Sprague Dawley rats; assay: Chung model of neuropathic pain (Chung surgery and von Frey test); type: in vivo, rat; conditions: 100 mg/kg, i.v., von Frey thresholds over 90 min
Protocol: To test agents for activity against peripheral mononeuropathy nerve injury-induced tactile allodynia, male Sprague Dawley rats (wt. 120-160 g) were surgically prepared with unilateral tight ligation of spinal nerves L5 and L6 following the method of Kim and Chung (Kim S. H., Chung J. M. (1992) Pain, September;50(3):355-63). After 3-4 weeks recovery, paw withdrawal to light touch was assessed as described by Chaplan et al. (Chaplan S. R., et al., (1994) J. Neurosci Methods, July;53(1):55-63). In brief, rats are placed in a plastic cage with a wire mesh bottom and allowed to acclimate for 15-30 minutes, until cage exploration and grooming stops. The plantar surface of each hind paw is touched with a series of von Frey hairs with varying stiffness requiring a known force to buckle to determine the nociceptive threshold. Adult male Sprague Dawley rats (avg. wt. 340 g) were tested in the present study. After acclimation, baseline von Frey thresholds were assessed for the injured hindpaw at −15 min. All test compounds were delivered at 0 min by the intravenous (i.v.) route in a volume of 0.5-2 ml/kg. The vehicle for test compounds was 100% PEG-400. For gabapentin the vehicle was deionized H2O. Animals were tested in one of the following 4 treatment conditions: (a) PEG400, (b) gabapentin (Neurontin) 100 mg/kg, (c) test compounds 3 mg/kg and (d) test compounds 10 mg/kg. Following drug administration, von Frey thresholds are measured at 15, 30, 60 and 90 min. Data were analyzed by a 2-way repeated measures analysis of variance followed by Dunnett's test (p<0.05). Experimenters were kept blind to the treatment condition of rats they tested.
Reversal of neuropathic pain behavior may be expressed as a percentage (0-100%) of the maximum possible effect, over and above the vehicle effects. Specifically, drug effects can be described in terms Δ% MPE according to the following equation: [formula]
AUCdrug=area under the curve for von Frey thresholds of the drug-treated group;
AUCvehicle=area under the curve for von Frey thresholds in the vehicle group;
Time=duration of post-drug testing period (90 min); and
Max=maximum von Frey threshold (15 g).
For example, a compound which immediately reversed neuropathic pain behavior to normal levels, such that animals only responded to the highest von Frey filament (15 g), and maintained normal levels through out the post-drug testing period (90 min) would be calculated as Δ% MPE=100%.

[4] = test system: cortical spreading depression (KCl application), Long-Evans rats; assay: In vivo electrophysiology: number of cortical spreading depressions produced by KCl application; conditions: i.v., 15 min prior to KCl, rat
Text: Male Long-Evans rats (300-450 g) were used in the present studies (Harlan). Rats were anesthetized with urethane anesthesia (1.2 g/kg i.p.) and placed in a stereotaxic frame. Under anesthesia a Silastic catheter was placed in the jugular vein of the rats. The skull was exposed using a scalpel. A small hole (approximately 2 mm by 3 mm) was drilled in to the skull rostral to the lambdoid suture using a microdrill and steel burr. The dura was disrupted and a drop of mineral oil was placed in this hole to prevent dehydration of the underlying cortex. Ultimately this hole was used for the application of crystalline KCl (described below).
Two additional holes were place in the skull unilaterally at 4 and 8 mm rostral to the application hole. Silver wire electrodes were placed in these latter holes and secured to the skull using acrylic cement. A similar silver wire electrode was sutured to the nuchal muscle to serve as a reference electrode. Electrical DC recordings were obtained using a standard differential amplifier (Warner, DP-304) and commercially available data acquisition equipment (Cambridge Electronic Design, 1401 A-D converter and Spike2 software).
All experimental procedures were conducted while the rats were maintained under anesthesia. Rats were injected with test compound, valproic acid or vehicle (100% PEG-400) 15 min prior to the application of crystalline KCl to the application site described above. All injections were given via the jugular vein at a volume of ≦0.5 ml/kg. Only one treatment was tested per animal. The effect of valproic acid was also determined in this study due to the fact that Depakote™ (divalproex sodium) is one of only three drugs currently indicated for the prophylatic treatment of migraine headache. Valproic acid (30-200 mg/kg i.v.) was obtained from Sigma Chemical Company and was dissolved in a vehicle of isotonic saline.
KCl was applied to the application site for 10 min and was then removed using a saline soaked cotton swab. Mineral oil was subsequently reapplied to the application site. Typically, this application produced a long-lasting series of spreading depressions. The number of spreading depressions produced by this KCl application was the primary measure used to access the effectiveness of compounds in this assay.
Data were analyzed using analyses of variance followed by the Dunnett post-hoc test for pairwise comparisons, when appropriate. A difference was considered significant when p≦0.05.
The effect of representative compounds of Formula I on spreading depression is expressed as the percent reduction from vehicle control and is listed in Table 3.

cloned mouse KCNQ2 (mKCNQ2), sequence (Q9Z351 whole entry): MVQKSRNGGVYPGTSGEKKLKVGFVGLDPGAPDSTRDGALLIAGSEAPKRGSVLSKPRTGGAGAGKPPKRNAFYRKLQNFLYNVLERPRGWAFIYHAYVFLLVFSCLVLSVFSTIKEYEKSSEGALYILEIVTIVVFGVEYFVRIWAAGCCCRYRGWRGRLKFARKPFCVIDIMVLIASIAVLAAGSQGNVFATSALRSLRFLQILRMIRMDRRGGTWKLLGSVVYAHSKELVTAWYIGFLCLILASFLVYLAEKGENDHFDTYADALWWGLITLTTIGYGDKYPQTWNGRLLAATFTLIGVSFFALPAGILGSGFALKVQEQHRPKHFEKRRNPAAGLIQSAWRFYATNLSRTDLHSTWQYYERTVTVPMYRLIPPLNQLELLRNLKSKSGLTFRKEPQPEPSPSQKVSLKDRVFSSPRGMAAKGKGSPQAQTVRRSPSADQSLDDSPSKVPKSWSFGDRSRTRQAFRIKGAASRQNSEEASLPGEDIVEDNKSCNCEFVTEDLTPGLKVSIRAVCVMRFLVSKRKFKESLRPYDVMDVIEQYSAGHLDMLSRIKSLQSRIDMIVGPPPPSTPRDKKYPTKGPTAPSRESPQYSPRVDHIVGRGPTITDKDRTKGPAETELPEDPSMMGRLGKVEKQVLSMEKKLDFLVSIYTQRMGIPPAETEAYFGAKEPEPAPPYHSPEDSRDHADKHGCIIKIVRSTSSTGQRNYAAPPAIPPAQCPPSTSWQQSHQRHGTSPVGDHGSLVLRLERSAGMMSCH

CC(NC(=O)/C=C/c1ccc(F)cc1)c1ccc(F)c(N2CCOCC2)c1 (racemic) [Example 152, (±)-N-[1-(4-Fluoro-3-morpho-lin-4-yl-phenyl)-eth-yl]-3-(4-fluoro-phen-yl)-acrylamide]
Stretched attend postures, percent of vehicle control ([1]; separate experiments with a vehicle control, dose not given): 80 % of vehicle control

CC(NC(=O)/C=C/c1cccc(F)c1)c1ccc2c(c1)OCCO2 (racemic) [Example 183, (±)-3-(3-Fluorophenyl)-N-[1-(2.3-dihydrobenzo[1,4]dioxin-6-yl)-ethyl]acrylamide]
activity at 10 µM [2]: 135%

COC(=O)N1CCc2ccc(C(C)NC(=O)/C=C/c3ccccc3)cc2C1 (racemic) [Example 197, (±)-7-[1-(3-Phenyl-acryloyl-amino)-ethyl]-3,4-di-hydro-1H-iso-quinoline-2-carboxylic acid methyl ester]
activity at 10 µM [2]: 187%

COC(=O)N1CCc2ccc(C(C)NC(=O)/C=C/c3ccc(Cl)cc3)cc2C1 (racemic) [Example 199, (±)-7-{1-[3-(4-Chloro-phen-yl)-acryloylamino]-eth-yl}-3,4-dihydro-1H-iso-quinoline-2-carboxylic acid methyl ester]
activity at 5 µM [2]: 138%

COC(=O)N1CCc2ccc(C(C)NC(=O)/C=C/c3ccccc3C)cc2C1 (racemic) [Example 200, (±)-7-[1-(3-o-Tolyl-acryloyl-amino)-ethyl]-3,4-di-hydro-1H-iso-quinoline-2-carboxylic acid methyl ester]
activity at 10 µM [2]: 126%

COC(=O)N1CCc2ccc(C(C)NC(=O)/C=C/c3ccccc3Cl)cc2C1 (racemic) [Example 201, (±)-7-{1-[3-(2-Chloro-phen-yl)-acryloylamino]-eth-yl}-3,4-dihydro-1H-iso-quinoline-2-carboxylic acid methyl ester]
activity at 5 µM [2]: 157%

CC(NC(=O)/C=C/c1ccc(Cl)cc1)c1ccc2c(c1)CCO2 (single isomer, unassigned) [Example 79, 3-(4-Chloro-phenyl)-N-[1-(2,3-di-hydro-benzo-furan-5-yl)-ethyl]-acrylamide]
activity at 1 µM [2]: 123%

O=C1CC2(CCCC2)CC(=O)N1CCCCN1CCN(c2ncccn2)CC1 [Buspirone, buspirone, reference compound]
% Reduction SAPs ([1]; 0.5 mg/kg, i.v., mouse): 71 (0.5 mg/kg. i.v.) % | Reduction in stretched attend postures (in words) ([1]; buspirone 0.5 mg/kg, compounds of Formula I administered IV): significant reduction

C[C@H](NC(=O)/C=C/c1ccccc1)c1ccc2ccccc2c1 [Example 2, (S)-N-(1-Naphthalen-2-yl-eth-yl)-3-phenyl-acryla-mide]
activity at 5 µM [2]: 160%

COc1cccc(/C=C/C(=O)N[C@@H](C)c2ccc3ccccc3c2)c1OC [Example 6, (S)-3-(2,3-Dimethoxy-phen-yl)-N-(1-naphthalen-2-yleth-yl)-acrylamide]
activity at 1 µM [2]: 110%

C[C@H](NC(=O)/C=C/c1ccc(OC(F)(F)F)cc1)c1ccc2ccccc2c1 [Example 19, (S)-N-(1-Naphthalen-2-yl-eth-yl)-3-(4-tri-fluoromethoxy-phen-yl)-acrylamide]
activity at 1 µM [2]: 123%

NCC1(CC(=O)O)CCCCC1 [Gabapentin, gabapentin, reference compound]
AUC (Δ% MPE) [3]: 50 (100 mg/kg, i.v.) Δ% MPE

CCCC(CCC)C(=O)O [Valproic acid, reference compound]
% Reduction (number of spreading depressions, from vehicle control) ([4]; 100 mg/kg): 31 (100 mg/kg, i.v.) %

(S)-N-[1-(3-(2,6-di- methyl-Morpholin)-4-yl-phen- yl)-ethyl]-3-phen- yl-acrylamide [Example 84]
% Reduction (number of spreading depressions, from vehicle control) ([4]; 1 mg/kg): 37 (1 mg/kg, i.v.) %
